Data published in article PMC8443048 (PLoS Pathogens, 2021).

Molecular target: T1, isocitrate lyase (ICL) (Brucella abortus, UniProt Q2YQA0)
T1 construct: gene BAB1_1631
Conditions: covalent; adduct with Cys185; active site

T1 sequence (Q2YQA0 1-429): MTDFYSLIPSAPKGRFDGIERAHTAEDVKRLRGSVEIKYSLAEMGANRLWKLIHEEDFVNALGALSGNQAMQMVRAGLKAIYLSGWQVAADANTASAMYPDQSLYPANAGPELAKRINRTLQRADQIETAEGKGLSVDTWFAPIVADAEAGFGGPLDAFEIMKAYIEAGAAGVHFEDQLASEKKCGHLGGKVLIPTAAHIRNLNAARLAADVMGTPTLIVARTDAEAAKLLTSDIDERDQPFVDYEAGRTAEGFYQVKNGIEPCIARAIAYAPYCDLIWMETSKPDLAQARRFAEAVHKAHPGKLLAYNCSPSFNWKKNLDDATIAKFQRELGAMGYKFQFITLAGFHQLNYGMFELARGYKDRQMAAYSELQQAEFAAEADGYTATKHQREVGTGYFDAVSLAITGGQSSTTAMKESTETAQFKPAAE

Q: Which “X-ray crystallography of the complex, 1.8 Å” value does the source give for `C=C(CC(=O)O)C(=O)O` [itaconate] here?
A: unambiguously shows a covalent adduct between itaconate and Cys185 in B. abortus isocitrate lyase
